PMC10246557, “Kinetic and inhibition studies on human Jumonji-C (JmjC) domain-containing protein 5” (RSC Chemical Biology, 2023)
Like-named read-outs stand apart in the source and are kept apart here.

Experiments:
human FIH = details: FIH 0.15 μM, cited from earlier work; for K m / k cat: HIF-1α788–822 substrate; for FIH (%): substrate hydroxylation with the compound as cosubstrate: absence of 2OG, 2OG derivative 330 μM, Fe(II) 50 μM, HIF-1α788–822 5.0 μM
human JMJD5 = molecular target: T1, human JMJD5 (Homo sapiens, UniProt Q8N371); assay: SPE-MS JMJD5 turnover and kinetic assay (RPS6_128–148 hydroxylation); assay type: biochemical; details: for JMJD5 (%): RPS6_128–148 hydroxylation with the compound as cosubstrate: absence of 2OG, JMJD5 0.15 μM, 2OG derivative 400 μM, Fe(II) 20 μM, RPS6_128–148 2.0 μM
T1 construct: made in house; host or cells: Escherichia coli BL21(DE3)
T1 sequence (Q8N371 whole entry): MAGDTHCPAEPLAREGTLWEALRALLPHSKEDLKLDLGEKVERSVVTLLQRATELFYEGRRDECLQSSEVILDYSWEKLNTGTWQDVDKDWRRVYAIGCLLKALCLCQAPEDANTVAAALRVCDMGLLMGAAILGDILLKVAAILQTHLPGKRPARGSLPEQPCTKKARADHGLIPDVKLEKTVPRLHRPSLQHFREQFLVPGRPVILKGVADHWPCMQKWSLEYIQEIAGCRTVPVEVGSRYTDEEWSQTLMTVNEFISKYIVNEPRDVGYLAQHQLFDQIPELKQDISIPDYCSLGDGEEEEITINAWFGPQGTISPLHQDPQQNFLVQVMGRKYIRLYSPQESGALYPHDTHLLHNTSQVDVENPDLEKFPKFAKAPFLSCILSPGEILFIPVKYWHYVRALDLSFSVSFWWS
Experimental: JMJD5 turnover assays for time course and kinetic experiments were performed in 96-well polypropylene assay plates (Greiner) with either […] total reaction volume using the concentrations given in the manuscript or ESI, ^† and JMJD5-catalysed substrate hydroxylation was directly monitored using SPE-MS. […] Assay samples were aspirated under vacuum for 0.6 s and loaded onto a C4 solid phase extraction (SPE) cartridge. After loading, the C4 SPE cartridge was washed with 0.1%v/v aqueous formic acid to remove non-volatile buffer salts (5.5 s, 1.5 mL min^−1). The peptide was eluted from the SPE cartridge with 0.1%v/v aqueous formic acid in 80/20v/v acetonitrile/water into the mass spectrometer (5.5 s, 1.5 mL min^−1) and the SPE cartridge re-equilibrated with 0.1%v/v aqueous formic acid (0.5 s, 1.5 mL min^−1). The mass spectrometer was operated using the MassHunter Workstation B.08.00 software (Agilent), the mass spectrometer parameters were: capillary voltage (4000 V), nozzle voltage (1000 V), fragmentor voltage (365 V), gas temperature (280 °C), gas flow (13 L min^−1), sheath gas temperature (350 °C), sheath gas flow (12 L min^−1). […] Data were exported into Microsoft Excel and used to calculate the % conversion of the hydroxylation reaction using the equation: % conversion = 100 × (integral product peptide)/(integral substrate peptide + integral product peptide).
parameters (continues on the following two pages). Maximum velocities (vapp ) and Michaelis constants (Kapp)
of JMJD5 were determined in independent triplicates, monitoring the JMJD5-catalyzed hydroxylation of the
SPE-MS, as described (Experimental Section).
20 °C). Measurement times were normalized to the first sample injection analyzed after the addition of JMJD5 to
shown as the mean of three independent runs (n = 3; mean ± standard deviation, SD).
hexahydrate (20 μM, (NH4)2Fe(SO4)2·6H2O); and (b) hydroxylation rates used to determine kinetic parameters of
(1 picture or pasted object on this page, not shown here)
Maximum velocities (vapp ) and
Michaelis constants (Kapp) of JMJD5 were determined in independent triplicates for (1R)-3-
(carboxycarbonyl)cyclopentane-1-carboxylic acid (14), monitoring the JMJD5-catalyzed hydroxylation of the
as described (Experimental Section).
pH 7.5, 20 °C). Measurement times were normalized to the first sample injection analyzed after the addition of
(§1) Data are shown as the mean of three independent runs (n = 3; mean ± SD).
to determine kinetic parameters of JMJD5 for 14.

human AspH = details: absence of 2OG; AspH 0.1 μM, 2OG derivative 330 μM, Fe(II) 50 μM, hFX-CP101–119 2.0 μM; cited from earlier work
human KDM4E = molecular target: T2, human KDM4E (Homo sapiens, UniProt B2RXH2); assay: KDM4E SPE-MS turnover and kinetic assay (H3 K9(me3) peptide demethylation); assay type: biochemical; details: for K app m / k app cat: 0.15 μM KDM4E, ARTAQTARK(me3)STGGIA 10 μM
T2 sequence (B2RXH2 1-506): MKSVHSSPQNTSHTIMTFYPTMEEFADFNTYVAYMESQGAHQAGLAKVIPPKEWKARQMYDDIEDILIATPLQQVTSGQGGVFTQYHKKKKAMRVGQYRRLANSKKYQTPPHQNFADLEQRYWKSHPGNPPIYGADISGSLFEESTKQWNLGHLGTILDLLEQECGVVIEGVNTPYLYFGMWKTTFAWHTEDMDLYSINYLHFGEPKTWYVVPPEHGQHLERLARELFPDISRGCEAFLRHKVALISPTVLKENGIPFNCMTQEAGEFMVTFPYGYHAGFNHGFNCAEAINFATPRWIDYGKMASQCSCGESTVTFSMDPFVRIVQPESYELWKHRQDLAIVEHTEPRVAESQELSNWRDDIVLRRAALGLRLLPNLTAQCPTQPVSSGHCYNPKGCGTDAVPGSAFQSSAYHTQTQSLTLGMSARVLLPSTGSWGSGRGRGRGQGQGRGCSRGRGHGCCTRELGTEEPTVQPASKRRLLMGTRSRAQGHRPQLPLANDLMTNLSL
Experimental: KDM4E turnover and inhibition assays were performed as reported using recombinant human KDM4E and a histone 3 K9(me3) derivative (i.e. […](me3)STGGIA)[41] as substrate.[95]
Supplementary Figure S3. Rates of KDM4E-catalyzed Nε-trimethyl lysine demethylations of a histone 3- […]
Maximum velocities (vapp ) and Michaelis […]
catalyzed Nε-trimethyl lysine demethylation of the histone 3 K9(me3)-derived peptide […]
(me3)STGGIA2 by SPE-MS as described;3 note that mono-, di-, and tri-demethylated product […]
buffer (50 mM MES, pH 7.0, 20 °C). Measurement times were normalized to the first sample injection analyzed […]
as §1
(a) Time course of the KDM4E-catalyzed Nε-trimethyl lysine demethylation reaction of the […]

[1] = absence of 2OG, KDM4E 0.15 μM, 2OG derivative 330 μM, Fe(II) 50 μM, ARTAQTARK(me3)STGGIA 10.0 μM

Row | Compound | JMJD5 (%): RPS6_128–148 hydroxylation with the compound as cosubstrate (human JMJD5) | FIH (%): substrate hydroxylation with the compound as cosubstrate (human FIH) | AspH (%): substrate hydroxylation with the compound as cosubstrate (human AspH) | KDM4E (%): substrate demethylation with the compound as cosubstrate (human KDM4E; [1]) | also measured
1 | O=C(O)CCC(=O)C(=O)O [C00021] | – | – | – | – | K m (human FIH): 0.8 ± 0.1 µM; k cat (human FIH): 0.04 ± 0.01 s⁻¹
2 | O=C(O)C(=O)c1ccc(C(=O)O)cc1 [C00018] | <1% | <1% | ∼80% | <1% | –
3 | CC1(C)c2ccccc2-c2ccc(CC(CC(=O)O)C(=O)C(=O)O)cc21 (stereo not drawn) [C00015] | <1% | <1% | <1% | <1% | –
4 | CCC(CC(=O)O)C(=O)C(=O)O (stereo not drawn) [C00005] | <1% | ∼2% | <1% | <1% | –
5 | RCCD1_134–150: RCCD1 amino acids 134–150, LPLLPCARAYVSPRAPF, JMJD5 substrate peptide [reference compound] | – | – | – | – | JMJD5-catalyzed hydroxylation of the substrate peptide (human JMJD5; after 1 h incubation, 50 mM MOPS pH 7.5, 20 °C): < 10%
6 | O=C(O)C(=O)C1CC[C@@H](C(=O)O)C1 (stereo partly drawn) [C00024] | – | – | – | – | K app m (human KDM4E): No reaction; k app cat (human KDM4E): No reaction
7 | CC(C)(CC(=O)C(=O)O)C(=O)O [C00002] | – | – | – | <1% | –
8 | O=C(O)C(=O)C1CC[C@@H](C(=O)O)C1 (stereo partly drawn) [C00012] | – | ∼2% | ∼15% | <1% | –
9 | O=C(O)C(=O)C1CC[C@@H](C(=O)O)C1 (stereo partly drawn) [C00022] | – | – | – | – | K m (human FIH): 14.8 ± 2.6 µM; k cat (human FIH): 0.01 ± 0.001 s⁻¹
10 | O=C(O)C(=O)c1cccc(C(=O)O)c1 [C00016] | <1% | <1% | <1% | <1% | –
11 | O=C1O[C@H]([C@@H](O)CO)C(O)=C1O [LAA, L-ascorbic acid, reference compound] | – | – | – | – | cosubstrate/cofactor role for JMJD5 (human JMJD5): not a cosubstrate/cofactor
12 | O=C(O)C(=O)CC(CCCc1ccccc1)C(=O)O (stereo not drawn) [C00008] | <1% | <1% | <1% | <1% | –
13 | O=C(O)CCC(=O)C(=O)O [C00023] | – | – | – | – | K app m (human KDM4E): 4.2 ± 1.1 µM; k app cat (human KDM4E): 0.14 ± 0.01 s⁻¹
14 | O=C(O)C(=O)CC(Cc1ccccc1)C(=O)O (stereo not drawn) [C00010] | <1% | <1% | <1% | <1% | –
15 | CC(CC(=O)O)C(=O)C(=O)O (stereo not drawn) [C00003] | ∼10% | ∼55% | >95% | ∼10% | –
16 | O=C(O)CCC(=O)C(=O)O [C00001] | ∼40% | ∼50% | – | – | KDM4E (%): substrate demethylation with the compound as cosubstrate (human KDM4E): ∼70%
17 | O=C(O)CCC(=O)C(=O)O [C00019] | – | – | – | – | K app m (human JMJD5; 0.15 μM JMJD5, 50 mM MOPS pH 7.5, 20 °C, LAA present): 0.29 ± 0.04 µM; k app cat (human JMJD5; 0.15 μM JMJD5, 50 mM MOPS pH 7.5, 20 °C, LAA present, calculated from vmax): 0.0056 ± 0.0002 s⁻¹
18 | CC(CC(=O)C(=O)O)C(=O)O (stereo not drawn) [C00017] | ∼10% | ∼45% | ∼10% | <1% | –
19 | O=C(O)CC(CCCc1ccccc1)C(=O)C(=O)O (stereo not drawn) [C00009] | <1% | <1% | <1% | ∼2% | –
20 | O=C(O)CC(Cc1ccc(OC(F)(F)F)cc1)C(=O)C(=O)O (stereo not drawn) [C00011] | <1% | <1% | <1% | <1% | –
21 | CCCC(CC(=O)O)C(=O)C(=O)O (stereo not drawn) [C00007] | <1% | <1% | <1% | <1% | –
22 | CC(C)(C)CCC(CC(=O)C(=O)O)C(=O)O (racemic) [Entry 17] | < 1% | < 1% | < 1% | < 1% | –
23 | COc1ccc(CC(CC(=O)O)C(=O)C(=O)O)cc1 (stereo not drawn) [C00013] | ∼10% | <1% | <1% | ∼5% | –
24 | O=C(O)C(=O)CC(Cc1ccccc1)C(=O)O (racemic) [Entry 19] | < 1% | < 1% | < 1% | < 1% | –
25 | CC(C)CC(CC(=O)C(=O)O)C(=O)O (racemic) [Entry 16] | < 1% | < 1% | < 1% | < 1% | –
26 | O=C(O)C(=O)c1ccccc1C(=O)O [C00014] | <1% | <1% | <1% | <1% | –
27 | O=C(O)C(=O)c1ccccc1C(=O)O [Entry 26] | < 1% | < 1% | < 1% | < 1% | –
